Key:
B-RAF G466V = target: T1, B-RAF G466V (Homo sapiens, UniProt P15056, G466V); assay: Target protein degradation, assay D: T-Rex 293 cells, HA-BRAF_G466V, 384 well format; type: cell-based; conditions: T-Rex 293 HA-BRAF_G466V cells, 24 hours, Examples 83-269; for DC50: Assay D; for Dmax: T-REx-293, Assay D
T1 construct: expressed in transfected cells; host or cells: T-Rex 293 cells (Invitrogen #R71007)
Procedure, shortened: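 Degradation measured by high-content imaging of anti-HA immunofluorescence in fixed T-Rex 293 cells carrying inducible HA-BRAF G466V (1 ng/mL doxycycline), after 24 h PROTAC exposure at 37 °C over 300 nM–5 pM (1:3, 11 points, 0.5% DMSO). Outputs DC50 and Dmax as % of control; nuclei counts against DMSO wells gauge toxicity.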

B-RAF V600E = target: T2, B-RAF V600E (Homo sapiens, UniProt P15056, V600E); assay: Target protein degradation, assay C: T-Rex 293 cells, HA-BRAF_V600E, 384 well format; type: cell-based; conditions: T-Rex 293 HA-BRAF_V600E cells, 24 hours, Examples 83-269; for DC50: Assay C; for Dmax: T-REx-293, Assay C
T2 construct: expressed in transfected cells; host or cells: T-Rex 293 cells (Invitrogen #R71007)
T2 sequence (P15056 whole entry V600E): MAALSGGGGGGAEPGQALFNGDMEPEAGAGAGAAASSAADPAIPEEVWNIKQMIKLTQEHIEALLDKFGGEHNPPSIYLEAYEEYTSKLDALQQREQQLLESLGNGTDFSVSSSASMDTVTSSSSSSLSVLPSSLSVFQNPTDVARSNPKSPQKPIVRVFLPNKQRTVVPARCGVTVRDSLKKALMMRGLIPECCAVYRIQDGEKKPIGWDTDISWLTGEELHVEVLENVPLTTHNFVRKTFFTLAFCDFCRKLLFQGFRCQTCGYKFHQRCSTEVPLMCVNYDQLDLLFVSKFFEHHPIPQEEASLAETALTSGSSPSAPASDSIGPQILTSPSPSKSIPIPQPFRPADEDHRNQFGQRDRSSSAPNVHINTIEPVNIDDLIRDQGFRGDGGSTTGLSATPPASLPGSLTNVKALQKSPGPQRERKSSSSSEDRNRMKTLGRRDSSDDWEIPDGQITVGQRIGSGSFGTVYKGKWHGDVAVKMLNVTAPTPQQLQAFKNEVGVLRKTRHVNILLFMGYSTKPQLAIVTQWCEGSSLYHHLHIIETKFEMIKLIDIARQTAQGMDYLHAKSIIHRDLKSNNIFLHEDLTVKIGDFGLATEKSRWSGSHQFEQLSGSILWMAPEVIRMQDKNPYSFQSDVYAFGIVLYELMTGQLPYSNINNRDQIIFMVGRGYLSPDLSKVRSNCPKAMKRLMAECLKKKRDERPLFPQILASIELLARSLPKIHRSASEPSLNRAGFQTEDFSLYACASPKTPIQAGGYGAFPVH
Procedure, shortened: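 After 24 h exposure to an 11-point 1:3 series (300 nM–5 pM, 0.5% DMSO), fixed T-Rex 293 cells carrying HA-BRAF V600E (induced with 1 ng/mL doxycycline) were stained anti-HA and imaged. DC50 and Dmax were derived from BRAF intensity relative to control, and cytotoxicity from nuclear counts.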

T1 sequence (P15056 whole entry G466V): as the sequence (P15056 whole entry V600E) above, with G466V, E600V counted along it

| SMILES | DC50 (B-RAF G466V) | Dmax (B-RAF G466V) | DC50 (B-RAF V600E) | Dmax (B-RAF V600E) |
| --- | --- | --- | --- | --- |
| N#Cc1c(NS(=O)(=O)N2CC[C@@H](F)C2)ccc(F)c1Oc1ccc2ncn(-c3ccc(N4CCN(CC5(F)CCN(c6ccc7c(c6)CN([C@H]6CCC(=O)NC6=O)C7=O)CC5)CC4)cc3)c(=O)c2c1 [Example 223, (3R)-N-(2-cyano-3-{[3-(4-{4-[(1-{2-[(3S)-2,6-dioxopiperidin-3-yl]-1-oxo-2,3-dihydro-1H-isoindol-5-yl}-4-fluoropiperidin-4-yl)methyl]piperazin-1-yl}phenyl)-4-oxo-3,4-dihydroquinazolin-6-yl]oxy}-4-fluorophenyl)-3-fluoropyrrolidine-1-sulfonamide] | 0.001 to 0.01 µM | 35 to 70% | 0.05 to 0.5 µM | 35 to 70% |
| CN(c1ccc(-n2cnc3ccc(Oc4c(F)ccc(NS(=O)(=O)N5CC[C@@H](F)C5)c4C#N)cc3c2=O)cc1)[C@H]1CC[C@@H](N2CCN(c3ccc4c(c3)CN([C@H]3CCC(=O)NC3=O)C4=O)CC2)CC1 [Example 224, (3R)-N-(2-cyano-4-fluoro-3-{[3-(4-{methyl[(1r,4r)-4-(4-{2-[(3S)-2,6-dioxopiperidin-3-yl]-1-oxo-2,3-dihydro-1H-isoindol-5-yl}piperazin-1-yl)cyclohexyl]amino}phenyl)-4-oxo-3,4-dihydroquinazolin-6-yl]oxy}phenyl)-3-fluoropyrrolidine-1-sulfonamide] | 0.01 to 0.03 µM | 35 to 70% | 0.05 to 0.5 µM | ≤ 35% |
| CN(c1ccc(-n2cnc3ccc(Oc4c(F)ccc(NS(=O)(=O)N5CC[C@@H](F)C5)c4C#N)cc3c2=O)cc1)C1CCC(N2CCN(c3ccc4c(c3)CN([C@H]3CCC(=O)NC3=O)C4=O)CC2)CC1 (stereo partly drawn) [Example 225, (3R)-N-(2-cyano-4-fluoro-3-{[3-(4-{methyl[(1s,4s)-4-(4-{2-[(3S)-2,6-dioxopiperidin-3-yl]-1-oxo-2,3-dihydro-1H-isoindol-5-yl}piperazin-1-yl)cyclohexyl]amino}phenyl)-4-oxo-3,4-dihydroquinazolin-6-yl]oxy}phenyl)-3-fluoropyrrolidine-1-sulfonamide] | 0.01 to 0.03 µM | 35 to 70% | > 0.5 µM | – |
| N#Cc1c(NS(=O)(=O)N2CC[C@@H](F)C2)ccc(F)c1Oc1ccc2ncn(-c3ccc(C4CCC5(CC4)CCN(CC4CCN(c6ccc7c(c6)CN([C@H]6CCC(=O)NC6=O)C7=O)CC4)CC5)cc3)c(=O)c2c1 [Example 226, (3R)-N-(2-cyano-3-{[3-(4-{3-[(1-{2-[(3S)-2,6-dioxopiperidin-3-yl]-1-oxo-2,3-dihydro-1H-isoindol-5-yl}piperidin-4-yl)methyl]-3-azaspiro[5.5]undecan-9-yl}phenyl)-4-oxo-3,4-dihydroquinazolin-6-yl]oxy}-4-fluorophenyl)-3-fluoropyrrolidine-1-sulfonamide] | 0.001 to 0.01 µM | 35 to 70% | 0.05 to 0.5 µM | ≤ 35% |
| CCc1c(NS(=O)(=O)N2CC[C@@H](F)C2)ccc(F)c1Oc1ccc2ncn(-c3ccc(N4CCN(CC5CCN(c6ccc7c(c6)CN(C6CCC(=O)NC6=O)C7=O)CC5)CC4)cc3)c(=O)c2c1 (stereo partly drawn) [Example 227, (3R)-N-{3-[(3-{4-[4-({1-[2-(2,6-dioxopiperidin-3-yl)-1-oxo-2,3-dihydro-1H-isoindol-5-yl]piperidin-4-yl}methyl)piperazin-1-yl]phenyl}-4-oxo-3,4-dihydroquinazolin-6-yl)oxy]-2-ethyl-4-fluorophenyl}-3-fluoropyrrolidine-1-sulfonamide] | 0.01 to 0.03 µM | ≤ 35% | 0.05 to 0.5 µM | ≤ 35% |
| N#Cc1c(NS(=O)(=O)N2CC[C@@H](F)C2)ccc(F)c1Oc1ccc2ncn(-c3ccc(N4CCC(CN5CCC6(CC5)CCN(c5ccc7c(c5)CN([C@H]5CCC(=O)NC5=O)C7=O)CC6)CC4)cc3)c(=O)c2c1 [Example 228, (3R)-N-(2-cyano-3-{[3-(4-{4-[(9-{2-[(3S)-2,6-dioxopiperidin-3-yl]-1-oxo-2,3-dihydro-1H-isoindol-5-yl}-3,9-diazaspiro[5.5]undecan-3-yl)methyl]piperidin-1-yl}phenyl)-4-oxo-3,4-dihydroquinazolin-6-yl]oxy}-4-fluorophenyl)-3-fluoropyrrolidine-1-sulfonamide] | 0.001 to 0.01 µM | 35 to 70% | 0.05 to 0.5 µM | 35 to 70% |
| CN(c1ccc2c(c1)CN([C@@H]1CCC(=O)NC1=O)C2=O)[C@H]1CC[C@H](N2CCN(c3ccc(-n4cnc5ccc(Oc6c(F)ccc(NS(=O)(=O)N7CC[C@@H](F)C7)c6C#N)cc5c4=O)cc3)CC2)CC1 [Example 229, (3R)-N-(2-cyano-4-fluoro-3-{[4-oxo-3-(4-{4-[(1r,4r)-4-({2-[(3R)-2,6-dioxopiperidin-3-yl]-1-oxo-2,3-dihydro-1H-isoindol-5-yl}(methyl)amino)cyclohexyl]piperazin-1-yl}phenyl)-3,4-dihydroquinazolin-6-yl]oxy}phenyl)-3-fluoropyrrolidine-1-sulfonamide] | 0.001 to 0.01 µM | 35 to 70% | 0.05 to 0.5 µM | 35 to 70% |
| CN(c1ccc2c(c1)CN([C@H]1CCC(=O)NC1=O)C2=O)[C@H]1CC[C@@H](N2CCN(c3ccc(-n4cnc5ccc(Oc6c(F)ccc(NS(=O)(=O)N7CC[C@@H](F)C7)c6C#N)cc5c4=O)cc3)CC2)CC1 [Example 230, (3R)-N-(2-cyano-4-fluoro-3-{[4-oxo-3-(4-(4-[(1r,4r)-4-({2-[(3S)-2,6-dioxopiperidin-3-yl]-1-oxo-2,3-dihydro-1H-isoindol-5-yl}(methyl)amino)cyclohexyl]piperazin-1-yl}phenyl)-3,4-dihydroquinazolin-6-yl]oxy}phenyl)-3-fluoropyrrolidine-1-sulfonamide] | 0.001 to 0.01 µM | 35 to 70% | 0.05 to 0.5 µM | 35 to 70% |

Now from value to molecule:

| DC50 (B-RAF G466V) | Dmax (B-RAF G466V) | DC50 (B-RAF V600E) | Dmax (B-RAF V600E) | SMILES |
| --- | --- | --- | --- | --- |
| 0.001 to 0.01 µM | 35 to 70% | 0.05 to 0.5 µM | 35 to 70% | CN(c1ccc2c(c1)CN([C@H]1CCC(=O)NC1=O)C2=O)[C@H]1CC[C@H](N2CCN(c3ccc(-n4cnc5ccc(Oc6c(F)ccc(NS(=O)(=O)N7CC[C@@H](F)C7)c6C#N)cc5c4=O)cc3)CC2)CC1 [Example 231, (3R)-N-(2-cyano-4-fluoro-3-{[4-oxo-3-(4-(4-[(1s,4s)-4-({2-[(3S)-2,6-dioxopiperidin-3-yl]-1-oxo-2,3-dihydro-1H-isoindol-5-yl}(methyl)amino)cyclohexyl]piperazin-1-yl}phenyl)-3,4-dihydroquinazolin-6-yl]oxy}phenyl)-3-fluoropyrrolidine-1-sulfonamide] |
| 0.001 to 0.01 µM | 35 to 70% | 0.05 to 0.5 µM | 35 to 70% | C[C@H]1CC(CN2CCC(c3ccc4c(c3)CN(C3CCC(=O)NC3=O)C4=O)CC2)CCN1c1ccc(-n2cnc3ccc(Oc4c(F)ccc(NS(=O)(=O)N5CC[C@@H](F)C5)c4C#N)cc3c2=O)cc1 (stereo partly drawn) [Example 232, (3R)-N-{2-cyano-3-[(3-{4-[(2S)-4-({4-[2-(2,6-dioxopiperidin-3-yl)-1-oxo-2,3-dihydro-1H-isoindol-5-yl]piperidin-1-yl}methyl)-2-methylpiperidin-1-yl]phenyl}-4-oxo-3,4-dihydroquinazolin-6-yl)oxy]-4-fluorophenyl}-3-fluoropyrrolidine-1-sulfonamide] |
| 0.01 to 0.03 µM | 35 to 70% | 0.05 to 0.5 µM | 35 to 70% | N#Cc1c(NS(=O)(=O)N2CC[C@@H](F)C2)ccc(F)c1Oc1ccc2ncn(-c3ccc(N4CCC(CN5CC6(CCN(c7ccc8c(c7)CN([C@H]7CCC(=O)NC7=O)C8=O)CC6)C5)C4)cc3)c(=O)c2c1 (stereo partly drawn) [Example 233, (3R)-N-(2-cyano-3-{[3-(4-{3-[(7-{2-[(3S)-2,6-dioxopiperidin-3-yl]-1-oxo-2,3-dihydro-1H-isoindol-5-yl}-2,7-diazaspiro[3.5]nonan-2-yl)methyl]pyrrolidin-1-yl}phenyl)-4-oxo-3,4-dihydroquinazolin-6-yl]oxy}-4-fluorophenyl)-3-fluoropyrrolidine-1-sulfonamide] |
| 0.001 to 0.01 µM | 35 to 70% | 0.05 to 0.5 µM | 35 to 70% | Cc1cc(N2CC(CN3CCN(c4ccc(-n5cnc6ccc(Oc7c(F)ccc(NS(=O)(=O)N8CC[C@@H](F)C8)c7C#N)cc6c5=O)cc4)CC3)C2)cc2c1C(=O)N([C@H]1CCC(=O)NC1=O)C2 [Example 234, (3R)-N-(2-cyano-3-{[3-(4-{4-[(1-{2-[(3S)-2,6-dioxopiperidin-3-yl]-7-methyl-1-oxo-2,3-dihydro-1H-isoindol-5-yl}azetidin-3-yl)methyl]piperazin-1-yl}phenyl)-4-oxo-3,4-dihydroquinazolin-6-yl]oxy}-4-fluorophenyl)-3-fluoropyrrolidine-1-sulfonamide] |
| 0.001 to 0.01 µM | 35 to 70% | 0.05 to 0.5 µM | 35 to 70% | Cc1cc(N2CC(CN3CCN(c4ccc(-n5cnc6ccc(Oc7c(F)ccc(NS(=O)(=O)N8CC[C@@H](F)C8)c7C#N)cc6c5=O)cc4)CC3)C2)cc2c1C(=O)N([C@@H]1CCC(=O)NC1=O)C2 [Example 235, (3R)-N-(2-cyano-3-{[3-(4-{4-[(1-{2-[(3R)-2,6-dioxopiperidin-3-yl]-7-methyl-1-oxo-2,3-dihydro-1H-isoindol-5-yl}azetidin-3-yl)methyl]piperazin-1-yl}phenyl)-4-oxo-3,4-dihydroquinazolin-6-yl]oxy}-4-fluorophenyl)-3-fluoropyrrolidine-1-sulfonamide] |
